Measured values taken from patent publication US20160237402A1, “Methods and Compositions for Ex Vivo Generation of Developmentally Competent Eggs from Germ Line Cells Using Autologous Cell Systems” (NORTHEASTERN UNIVERSITY, priority 2013, published 2016).

Experiments:
[1] = test system: FACS-purified Fox12-DsRed-positive cells; assay: Estradiol and progesterone production by FACS-purified Fox12-DsRed-positive cells (ELISA of culture medium); type: cell-based, mouse; settings: FSH 100 ng/ml or 8-br-cAMP 1 mM; cultured 24, 48 or 72 hours; versus vehicle (PBS) control; cells isolated on day 12 of ESC differentiation
Method: (§1) FIG. 5A is a graph showing estradiol production by FACS-purified Fox12-DsRed positive cells (2×10^3 cells per well), which spontaneously differentiated in embryonic stem cell cultures, maintained in culture for up to 3 days (FSH, 100 ng/ml; 8-br-cAMP, 1 mM). Data are the mean±SEM of 3 independent cultures (*, P<0.05 versus vehicle control).
as §1, with “5B” for “5A”, “progesterone” for “estradiol”
To identify and track ovarian somatic cells in differentiating ESC cultures, the expression of the early granulosa cell marker, Fox12, in differentiating ESC cultures was mapped. […] A 739 by region of the Fox12 gene promoter was identified using Genome Vista. The region was isolated from mouse genomic DNA and cloned into the pDsRed2-1 vector (Clontech, Mountain View, Calif.,) or the pLenti6 lentiviral construct containing the complete open reading frame of DsRed (Gateway Lentiviral System; Invitrogen), thus creating a DsRed expression vector under control of the Fox12 gene promoter.
Promoter activity and specificity were verified using mouse granulosa cells as a positive control and 293 cells (Invitrogen) as a negative control. To verify the Fox12 gene promoter-driven DsRed expression, undifferentiated TgOG2 ESCs were stably transfected with the Fox12-pDsRed2-1 construct via electroporation, followed by clonal selection and expansion. Alternatively, ESCs were virally transduced following initiation of differentiation using viral supernatant produced by 293 cells transfected with the Fox12-DsRed lentiviral construct (pLenti6-Fox12-DsRed). Cells were analyzed for expression of DsRed by fluorescence microscopy and isolated by fluorescence-activated cell sorting (FACS).
For FACS, differentiating ESCs were removed from the plate by either 0.25% trypsin-EDTA (prior to day 10 of differentiation) or manually scraped. […] The cells were analyzed and sorted using a FACS Aria flow cytometer (BD Biosciences, San Jose, Calif.).
Estradiol and progesterone concentrations were measured in culture medium from FACS-purified Fox12-DsRed-positive cells that had been re-plated and cultured for 24, 48 or 72 hours in the presence of PBS (vehicle), 100 ng/ml follicle stimulating hormone (FSH; NIDDK, NIH, Bethesda, Md.) or 1 mM 8-bromoadenosine-3′,5′-cyclic monophosphate (8-br-cAMP; Sigma-Aldrich). […]

[2] = test system: OSC differentiation into oocytes; assay: GCV treatment of transgenic mice with Stra8 promoter-driven HSVtk; counts of oocyte-containing primordial follicles; type: in vivo
Method: FIGS. 2A-D are graphs that show the OSCs of aged mice lose the ability to support primordial follicle formation. Transgenic mice, ranging from 2-11 months, having an inducible “suicide gene” (herpes simplex virus thymidine kinase or HSVtk) that specifically disrupts OSC differentiation into oocytes only in the presence of the HSVtk pro-drug ganciclovir (GCV), were tested for their ability to lose and regain their oocyte reserves after activation and deactivation of the suicide gene, respectively.
Animals and treatments. Transgenic pStra8-Gfp mice with expression of green fluorescent protein (GFP) driven by the promoter of the meiosis commitment gene, stimulated by retinoic acid gene 8 (Stra8;) mice were generated as described in Imudia et al., Fertil Steril, 100:1451-1458 (2013). Transgenic mice with herpes simplex virus thymidine kinase (HSVtk) expression driven by the Stra8 promoter were generated by replacing the GFP-coding sequence in the pStra8-Gfp construct with cDNA encoding GFP-fused HSVtk and the constructs were then sent to Genoway for generation of the transgenic lines, as described (Imudia et al., Fertil Steril, 100:1451-1458 (2013). For comparative studies, wild type and transgenic siblings from breeding colonies were used in parallel to rule out any potential effect of background strain on the outcomes. For treatments, the HSVtk pro-drug, ganciclovir (GCV; Roche), was dissolved in sterile water at 10 mg/ml, and then diluted in sterile 1×-concentrated phosphate-buffered saline (PBS) for daily dosing (10 mg/kg for 21 days, intraperitoneal injection). Control animals were injected with vehicle (PBS) in parallel.
Oocyte counts. Prior to the start of PBS or GCV injections, 21 days after daily dosing with GCV, and 21 days after ceasing GCV treatment, ovaries were collected from mice at the indicated ages, fixed, embedded in paraffin, and serially sectioned for histomorphometry-based quantification of the number of oocyte-containing primordial follicles, as detailed (Jones and Krohn, J Endocrinol, 21:469-495 (1961); Johnson et al., Nature, 428:145-150 (2004); and Wang and Tilly, Cell Cycle, 9:339-349 (2010)). All samples were assessed in a completely blinded fashion, and reproducibility was independently confirmed with randomly selected slides by a second observer. In all cases, variation in counts between observers was less than 7%.

With follicle stimulating hormone [FSH] the estradiol production [1] was “significant increase” and the progesterone production [1] was “only 8-br-cAMP was able to significantly enhance”.

Nc1nc(O)c2ncn(COC(CO)CO)c2n1 [GCV, ganciclovir] was tested, and the “response of primordial follicle pool to GCV treatment” value ([2]; advanced aged mice, 10-11 months of age, 10 mg/kg daily for 21 days, intraperitoneal) was “completely refractory”, the “primordial follicle reserve after GCV treatment” value ([2]; middle-age adult mice, 5-6 months of age, 10 mg/kg daily for 21 days, intraperitoneal) was “reduced primordial follicle reserve” and the “time for primordial follicle pool to regenerate back to control (PBS, vehicle) levels after ceasing GCV treatment” value ([2]; young adult (2-3 months) and middle-age (5-6 months) mice) was ≤ 21 days. The “primordial follicle reserve after GCV treatment” value ([2]; young adult mice, 2-3 months of age, 10 mg/kg daily for 21 days, intraperitoneal) was “reduced primordial follicle reserve”.

For Nc1ncnc2c1nc(Br)n2[C@@H]1O[C@@H]2COP(=O)(O)O[C@H]2[C@H]1O [8-br-cAMP, 8-bromoadenosine-3′,5′-cyclic monophosphate], the estradiol production [1] was “significant increase” and the progesterone production [1] was “significantly enhance”.
